Legend:
[1] = thermodynamic stability of the polymorph form versus temperature; type: physicochemical; conditions: at temperatures below 200° C.
[2] = behaviour of the polymorph form at relative humidity (storage); type: physicochemical; conditions: at 80% relative humidity

CS(=O)(=O)O.Cc1ccc(NC(=O)c2ccc(CN3CCN(C)CC3)cc2)cc1Nc1nc(-c2cccnc2)cs1 [(VI), 4-(4-Methyl-piperazin-1-ylmethyl)-N-[4-methyl-3-(4-pyridin-3-yl-thiazol-2-ylamino)-phenyl]-benzamide methanesulfonate]
thermodynamic stability of the polymorph form [1]: thermodynamically stable
state of the polymorph form under humidity [2]: remains, dry

Reference: patent US8940894B2, “Aminothiazole compounds as kinase inhibitors and methods of using the same” (AB Science, priority 2007, dated 2015)
